Assay results published in patent US6593335B1, “Potassium channel openers” (Abbott Laboratories, priority 1997, dated 2003).

Molecular target: potassium channels (Sus scrofa, UniProt F1SR11)
Assay: Functional potassium channel opening activity in isolated Landrace pig bladder strips (field-stimulated twitch)
Conditions: for Landrace Pig Bladder Index: ED50 for P1075 divided by ED50 for the test agonist, averaged over tissues; for Landrace Pig Bladder pD2: negative logarithm of ED50; for Emax: pig, maximal efficacy relative to P1075, field stimulation 0.05Hz, 0.5 milli-seconds at 20 volts
Experimental: The entire bladder was removed and ed into Krebs Ringer bicarbonate solution (composition, mM: NaCl,; dextrose, 1; KCl, 4.7; […] Propranolol (0.004 ed in all of the assays to block […]. The trigonal and dome […]. Strips 3-5 mm wide and 20 mm long were prepared from the cut in a circular fashion. The mucosal layer was removed. One end ationary glass rod and the other to a Grass FT03 transducer at a basal am. Two parallel platinum electrodes were included in the stationary ide field stimulation of 0.05Hz, 0.5 milli-seconds at 20 volts. […] Tissues were allowed to equilibrate for at least 60 minutes and primed with 80 mM KCl. A control concentration response curve (cumulative) was generated for each tissue using the potassium channel opener […] as the control agonist. […] After a 60 minute rinsing period, a concentration response curve (cumulative) was generated for the test agonist in the same fashion as that used for the control agonist […]. The maximal efficacy of each compound (expressed as % relative to […]) is reported. […] J. Physiol. 235, E97 (1980)), and agonist potencies were expressed as pD2 (the negative logarithm). Agonist potencies were also expressed as an index relative to […]. The index was calculated by dividing the ED50 for […] by the ED50 for the test agonist in a given tissue. Each tissue was used for only one test agonist, and the indices obtained from each tissue were averaged to provide an average index of potency.

Row | SMILES | Landrace Pig Bladder Index | Landrace Pig Bladder pD2 | Emax [%]
1 | O=C1CCCC2=C1C(c1cccc([N+](=O)[O-])c1)C1=C(CCCS1(=O)=O)N2 (stereo not drawn) [Example 1, 3,4,6,7,8,10-hexahydro-10-(3-nitrophenyl)-2H-thiopyrano[3,2-b]quinolin-9(5H)-one, 1,1-dioxide] | 0.022 | 5.5 | 100
2 | O=C1CCCC2=C1C(c1ccc(Cl)c(Cl)c1)C1=C(CCCS1(=O)=O)N2 (stereo not drawn) [Example 2] | 0.15 | 6.2 | 96
3 | O=C1CCCC2=C1C(c1ccc(F)c(Cl)c1)C1=C(CCCS1(=O)=O)N2 (stereo not drawn) [Example 3, 10-(3-chloro-4-fluorophenyl)-3,4,6,7,8,10-hexahydro-2H-thiopyrano [3,2-b]quinolin-9(5H)-one, 1,1-dioxide] | 0.11 | 6.0 | 85
4 | O=C1CCCC2=C1C(c1ccc(F)c(Br)c1)C1=C(CCCS1(=O)=O)N2 (stereo not drawn) [Example 4, 10-(3-bromo-4-fluorophenyl)-3,4,6,7,8,10-hexahydro-2H-thiopyrano [3,2-b]quinolin-9(5H)-one, 1,1-dioxide] | 0.18 | 6.2 | 93
5 | N#Cc1cccc(C2C3=C(CCCC3=O)NC3=C2S(=O)(=O)CCC3)c1 (stereo not drawn) [Example 5, 10-(3-cyanophenyl)-3,4,6,7,8,10-hexahydro-2H-thiopyrano [3,2-b]quinolin-9(5H)-one, 1,1-dioxide] | 0.0076 | 4.8 | 96
6 | O=C1CCCC2=C1C(c1cccc(Cl)c1)C1=C(CCCS1(=O)=O)N2 (stereo not drawn) [Example 16, 10-(3-chlorophenyl)-3,4,6,7,8,10-hexahydro-2H-thiopyrano [3.2-b]quinolin-9(5H)-one, 1,1-dioxide] | 0.011 | 5.0 | 100
7 | CC1=C(S(C)(=O)=O)C(c2cc(F)c(F)c(F)c2)C2=C(CCCC2=O)N1 (stereo not drawn) [Example 22, 4-(3,4,5-trifluorophenyl)-4,6,7,8-tetrahydro-2-methyl-3-(methylsulfonyl)-5(1H)-quinolinone] | 0.0069 | 4.5 | 77
8 | CC1=C(S(C)(=O)=O)C(c2ccc(C)c([N+](=O)[O-])c2)C2=C(CCCC2=O)N1 (stereo not drawn) [Example 23, 4,6,7,8-tetrahydro-2-methyl-4-(4-methyl-3-nitrophenyl)-3-(methylsulfonyl)-5(1H)-quinolinone] | 0.0053 | 4.4 | 81
9 | CC1=C(S(C)(=O)=O)C(c2ccc(F)c(Br)c2)C2=C(CCCC2=O)N1 (stereo not drawn) [Example 25, 4-(3-bromo-4-fluorophenyl)-4,6,7,8-tetrahydro-2-methyl-3-(methylsulfonyl)-5(1H)-guinolinone] | 0.038 | 5.4 | 88
10 | CC1=C(S(C)(=O)=O)C(c2cccc([N+](=O)[O-])c2)C2=C(CCCC2=O)N1 (stereo not drawn) [Example 26, 4,6,7,8-tetrahydro-2-methyl-3-(methylsulfonyl)-4-(3-nitrophenyl)-5(1H)-quinolinone] | 0.0099 | 4.5 | 78
11 | N#Cc1cccc(C2C3=C(CCCC3=O)NC3=C2S(=O)(=O)CC3)c1 (stereo not drawn) [Example 30, 9-(3-cyanophenyl)-2,3,5,6,7,9-hexahydrothieno [3.2-b]quinolin-8(4H)-one, 1,1-dioxide] | 0.018 | 5.5 | 99
12 | O=C1CCCC2=C1C(c1ccc(Cl)c([N+](=O)[O-])c1)C1=C(CCS1(=O)=O)N2 (stereo not drawn) [Example 34, 9-(4-chloro-3-nitrophenyl)-2,3,5,6,7,9-hexahydrothieno [3,2-b]quinolin-8(4H)-one, 1,1-dioxide] | 0.32 | 6.8 | 100
13 | CC(=O)C1=C(C)NC2=C(C1c1ccc(Cl)c([N+](=O)[O-])c1)S(=O)(=O)CCC2 (stereo not drawn) [Example 36] | 0.040 | 5.5 | 97
14 | O=C1CCC2=C1C(c1ccc(Cl)c([N+](=O)[O-])c1)C1=C(CCCS1(=O)=O)N2 (stereo not drawn) [Example 38, 9-(4-chloro-3-nitrophenyl)-3,4,5,6,7,9-hexahydrocyclopenta[b]thiopyrano [2.3-e]pyridin-8(2H)-one, 1,1-dioxide] | 0.14 | 6.2 | 98
15 | O=C1CCC2=C1C(c1ccc(F)c(Br)c1)C1=C(CCCS1(=O)=O)N2 (stereo not drawn) [Example 40, 9-(3-bromo-4-fluorophenyl)-3,4,5,6,7,9-hexahydrocyclopenta[b]thiopyrano [2.3-e]pyridin-8(2H)-one, 1,1-dioxide] | 0.46 | 6.9 | 98
16 | O=C1CCCC2=C1C(c1ccc(F)c(Br)c1)C1=C(CCS1(=O)=O)N2 (stereo not drawn) [Example 43, 9-(3-bromo-4-fluoronhenyl)-2,3,5,6,7,9-hexahydrothieno [3,2-b]quinolin-8(4H)-one, 1,1-dioxide] | 0.41 | 6.6 | 98
17 | O=C1CCC2=C1C(c1ccc(Cl)c([N+](=O)[O-])c1)C1=C(CCS1(=O)=O)N2 (stereo not drawn) [Example 44, 8-(4-chloro-3-nitrophenyl)-2,3,4,5,6,8-hexahydro-7H-cyclopenta[b]thieno[2,3-e]pyridin-7-one 1,1-dioxide] | 0.15 | 6.2 | 99
18 | O=[N+]([O-])c1cc(C2C3=C(CCS3(=O)=O)NC3=C2S(=O)(=O)CC3)ccc1Cl [Example 51, 8-(4-chloro-3-nitrophenyl)-2,3,4,5,6,8-hexahydrodithieno [3,2-b:2′,3′-e]pyridine, 1,1 7,7-tetraoxide] | 0.021 | 5.4 | 99
19 | O=S1(=O)CCC2=C1C(c1ccc(F)c(Br)c1)C1=C(CCS1(=O)=O)N2 [Example 53, 8-(3-bromo-4-fluorophenyl)-2,3,4,5,6,8-hexahydrodithieno [3.2-b:2′,3′-e]pyridine, 1,1,7,7-tetraoxide] | 0.17 | 6.6 | 100
20 | O=C1CCC2=C1C(c1cccc([N+](=O)[O-])c1)C1=C(CCS1(=O)=O)N2 (stereo not drawn) [Example 58, 2,3,4,5,6,8-hexahydro-8-(3-nitrophenyl)-7H-cyclopenta[b]thieno [2.3-e]pyridin-7-one, 1,1-dioxide] | 0.026 | 5.3 | 94
21 | O=C1CCC2=C1C(c1ccc(F)c(Cl)c1)C1=C(CCS1(=O)=O)N2 (stereo not drawn) [Example 61, 8-(3-chloro-4-fluorophenyl)-2,3,4,5,6,8-hexahydro-7H-cyclopenta[b]thieno [2,3-e]pyridin-7-one, 1,1-dioxide] | 0.71 | 7.1 | 100
22 | O=C1CCC2=C1C(c1csc([N+](=O)[O-])c1)C1=C(CCS1(=O)=O)N2 (stereo not drawn) [Example 69] | 0.15 | 6.2 | 98
23 | O=C1CCC2=C1C(c1ccc(Br)c(Br)c1)C1=C(CCS1(=O)=O)N2 (stereo not drawn) [Example 72] | 0.53 | 6.6 | 97
24 | O=C1CCCC2=C1[C@@H](c1ccc(F)c(Br)c1)C1=C(CCS1(=O)=O)N2 [Example 83, (+)-(9R)-9-(3-bromo-4-fluorophenyl)-2,3,5,6,7,9-hexahydrothieno [3.2-b]guinolin-8(4H)-one, 1,1-dioxide] | 0.57 | 7.0 | 100
25 | O=C1CCCC2=C1[C@H](c1ccc(F)c(Br)c1)C1=C(CCS1(=O)=O)N2 [Example 84, (−)-(9S)-9-(3-bromo-4-fluorophenyl)-2,3,5,6,7,9-hexahydrothieno [3,2-b]quinolin-8(4H)-one, 1,1-dioxide] | 0.69 | 6.8 | 100
26 | O=C1CCCC2=C1C(c1cc(Br)ccc1O)C1=C(CCS1(=O)=O)N2 (stereo not drawn) [Example 108, 9-(5-bromo-2-hydroxyphenyl)-2,3,5,6,7,9-hexahydrothieno[3,2-b]quinolin-8(4H)-one 1,1-dioxide] | 0.075 | 4.7 | 98
27 | O=S1(=O)CCC2=C1C(c1ccc(F)c(Br)c1)C=C(C(F)(F)F)N2 (stereo not drawn) [Example 112, 7-(3-bromo-4-fluorophenyl)-5-(trifluoromethyl)-2,3,4,7-tetrahydrothieno [3,2-b]pyridine. 1,1-dioxide] | 0.032 | 5.7 | 99
28 | O=C1CCCC2=C1C(c1cc(Br)c(F)cc1O)C1=C(CCS1(=O)=O)N2 (stereo not drawn) [Example 121, 9-(5-bromo-4-fluoro-2-hydroxyphenyl)-2.35,6,7,9-hexahydrothieno[3.2-b]quinolin-8(4H)-one, 1,1-dioxide] | 0.078 | 6.2 | 100
